According to patent US9822373B2, “Mutant cells for protein secretion and lignocellulose degradation” (The Regents of the University of California, priority 2011, dated 2017):

What was measured:
[1] = system: Neurospora crassa; assay: Avicel hydrolysis assay with shake flask culture supernatants; type: cell-based
Description: Cultures were grown in 1% sucrose for 24 hours followed by the addition of 2% sucrose or 0.2% cellobiose. Supernatant was harvested after 24 (WT, Δ3βG and Δ3βGΔcre) or 72 hours (Δ3βG). The WT Avicel® culture was grown for 5 days on 2% Avicel®, Δ3βG was grown in 1% sucrose for 24 hours followed by 48 hours in 1% Avicel® and Δ3βGΔcre was grown in 1% sucrose for 24 hours followed by 24 hours in 1% Avicel®.
Total Avicelase activity was conducted in 250 mL media bottles incubated at 50° C. on a orbital shaker at 200 rpm. Each bottle contained 1% cellulose (Avicel®) and 50 mM (pH 5.0) sodium acetate in a working volume of 50 mL. Tetracycline (10 μg/mL) was added to prevent microbial contamination. Bioreactor culture broth samples were buffer exchanged using a 10 kDa MWCO centrifugal filter to remove any soluble sugars prior to initiating hydrolysis experiments. After pre-incubating the hydrolysis mixture to 50° C., enzyme was added (1 mL filtered culture broth). Samples were taken every 4 hours for the first 12 hours and then every 12 hours thereafter for a total of 48 hours. Hydrolysis experiments were performed in triplicate.
(§1) Sucrose, fructose, glucose and cellobiose were measured on a DIONEX ICS-3000 HPLC (Dionex Corp., Sunnyvale, Calif.) using a CarboPac PA20 Analytical Column (3×150 mm) and a CarboPac PA20 guard column (3×30 mm) at 30° C. Following injection of 25 μl of diluted samples, elution was performed with 100 mM KOH (isocratic) at 0.4 ml/min. Sugars were detected using PAD, Four-Potential Carbohydrate Waveform and Peaks were analyzed using the Chromeleon software package.

[2] = system: NCU07760 (gh61-2); assay: mRNA sequencing (RNA-Seq), transcript abundance of gh61-2; type: cell-based, Neurospora crassa; settings: Δ3βG mutant; 4 hours after transfer to 0.2% cellobiose
Description: (§2) Conidia from strains were inoculated at an OD595 equal to 0.05 in 50 ml Vogel's salts (45) with 2% w/v sucrose in a 250 ml Erlenmeyer flask and grown under constant light at 200 rpm for 16 hours. Biomass was then spun at 4200 rpm for 10 minutes and washed in Vogel's salts twice to remove any excess sucrose. Biomass was then added to a new flask containing 50 ml Vogel's salts supplemented with 1% w/v sucrose, 0.2% w/v cellobiose (Sigma) or 1% w/v Avicel® PH 101 (Sigma). Cultures were induced for 4 hrs under constant light at 200 rpm. The culture biomass was then harvested by filtration over a Whatman glass microfiber filter (GF/F) on a Buchner funnel and washed with 50 ml Vogel's salts. The biomass was flash frozen in liquid nitrogen and stored at −80° C. Three independent biological duplicates (flasks) were evaluated for each time point.
(§3) Total RNA from frozen samples was isolated using Zirconia/Silica beads (0.5 mm diameter; Biospec) and a Mini-Beadbeater-96 (Biospec) with 1 mL TRIzol reagent (Invitrogen) according to the manufacturer's instructions. […]
(§4) mRNA sequencing was performed using an Illumina kit (RS-100-0801) with isolated RNA. The final cDNA library was quantified by an Agilent bioanalyzer 2000 and sequenced using an Illumina Genome Analyzer-II using standard Illumina operating procedures. […]

[3] = system: Neurospora crassa; assay: Total Avicelase activity of bioreactor culture supernatant; type: cell-based; settings: supernatant of the 24-hour induction time point
Description: Cellulase production was carried out in a 3.7 L bioreactor (BioEngineering AG) at an operating volume of 1 L. The bioreactor was equipped with one 48 mm Rushton impeller and four equally spaced baffles to provide adequate mixing. Impeller speed was controlled at 200 rpm for 8 hours to allow spore germination followed by 500 rpm for the remainder of the experiment. The temperature was maintained at 25° C., and medium pH was controlled at 5.5 using 40% phosphoric acid and 1:5 diluted ammonium hydroxide. The dissolved oxygen was maintained at a level greater than 20% of the saturation value of the medium by varying the aeration rate between 0.5 and 3 VVM in response to the dissolved oxygen tension. Minimal growth medium with 1% w/v sucrose as the sole carbon source (unless otherwise noted) was inoculated with 10^9 conidia. After 24 hours initial growth, cellulase production was induced with either cellobiose or Avicel® added to a final concentration of 0.2% w/v. […]
as §1, with “Following injection of 25 μl of diluted samples, elution was performed with 100 mM KOH (isocratic) at 0.4 ml/min.” left out

[4] = system: NCU05924 (endoxylanase, gh10-1); assay: mRNA sequencing (RNA-Seq), transcript abundance of gh10-1; type: cell-based, Neurospora crassa; settings: Δ3βG mutant; 4 hours after transfer to 0.2% cellobiose
Description: as §2, §3, §4

[5] = system: Neurospora crassa; assay: Bioreactor cellulase production, total secreted protein in supernatant; type: cell-based; settings: pre-grown 24 hours on 1% sucrose, induction with 0.2%
Description: Cellulase production was carried out in a 3.7 L bioreactor (BioEngineering AG) at an operating volume of 1 L. The bioreactor was equipped with one 48 mm Rushton impeller and four equally spaced baffles to provide adequate mixing. Impeller speed was controlled at 200 rpm for 8 hours to allow spore germination followed by 500 rpm for the remainder of the experiment. The temperature was maintained at 25° C., and medium pH was controlled at 5.5 using 40% phosphoric acid and 1:5 diluted ammonium hydroxide. The dissolved oxygen was maintained at a level greater than 20% of the saturation value of the medium by varying the aeration rate between 0.5 and 3 VVM in response to the dissolved oxygen tension. Minimal growth medium with 1% w/v sucrose as the sole carbon source (unless otherwise noted) was inoculated with 10^9 conidia. After 24 hours initial growth, cellulase production was induced with either cellobiose or Avicel® added to a final concentration of 0.2% w/v. Supernatant samples were collected at timepoint 0, 12 hours before induction, at induction, as well as 4, 8, 12, 24 and 36 hours post induction. Samples were spun at 4000 rpm for 5 minutes to pellet biomass and the supernatant was filtered through a 0.2 μm PES filter before being stored at −20° C. until all samples were collected.
Total secreted proteins were measured using the Bio-Rad Protein Assay kit (Bio-Rad) and visualized by running 15 μl of unconcentrated supernatant on a Criterion 4-14% Tris-HCL polyacrylamide gel and stained with Thermo Scientific GelCode Blue Stain Reagent.

With `O=C[C@H](O)[C@@H](O)[C@H](O[C@@H]1O[C@H](CO)[C@@H](O)[C@H](O)[C@H]1O)[C@H](O)CO` [cellobiose] the “hydrolysis of crystalline cellulose by culture supernatant” value (“hydrolysis of crystalline cellulose” for short) ([1]; WT cultures grown on or induced with the substance) was “did not”, the “hydrolysis of crystalline cellulose” value ([1]; Δ3βG cultures grown on or induced with the substance) was “hydrolyzed crystalline cellulose” and the “hydrolysis of crystalline cellulose” value ([1]; Δ3βGΔcre cultures grown on or induced with the substance) was “hydrolyzed crystalline cellulose”. For the same molecule, the “FPKM of NCU07760 (gh61-2)” value [2] was 538 FPKM, the “aggregate Avicelase activity, glucose equivalents” value ([3]; Δ3βG strain) was 0.296 mg/mL and the “aggregate Avicelase activity, glucose equivalents” value ([3]; Δ3βGΔcre strain) was 0.424 mg/mL. For the same molecule, the “FPKMs of NCU05924 (endoxylanase, gh10-1)” value [4] was 10,000 FPKMs, the “protein in the supernatant” value ([5]; WT) was 0.05 mg/mL and the “protein in the supernatant” value ([5]; Δ3βG) was 0.12 mg/mL. For the same molecule, the “protein in the supernatant” value ([5]; Δ3βGΔcre) was 0.24 mg/mL.
